Laboratory results taken from article PMC12445744, “Molecular docking to homology models of human and Trypanosoma brucei ERK8 that identified ortholog-specific inhibitors” (PLOS Neglected Tropical Diseases, 2025).
“And” between values parts separate entries of the source, which are not always exact repeats. Equal entries are not always repeated.

Columns and labels:
[1] = system: T. brucei; conditions: cited from earlier work
[2] = molecular target: T1, TbERK8 (Trypanosoma brucei brucei, UniProt Q38B88); conditions: cited from earlier work
T1 sequence (Q38B88 1-442): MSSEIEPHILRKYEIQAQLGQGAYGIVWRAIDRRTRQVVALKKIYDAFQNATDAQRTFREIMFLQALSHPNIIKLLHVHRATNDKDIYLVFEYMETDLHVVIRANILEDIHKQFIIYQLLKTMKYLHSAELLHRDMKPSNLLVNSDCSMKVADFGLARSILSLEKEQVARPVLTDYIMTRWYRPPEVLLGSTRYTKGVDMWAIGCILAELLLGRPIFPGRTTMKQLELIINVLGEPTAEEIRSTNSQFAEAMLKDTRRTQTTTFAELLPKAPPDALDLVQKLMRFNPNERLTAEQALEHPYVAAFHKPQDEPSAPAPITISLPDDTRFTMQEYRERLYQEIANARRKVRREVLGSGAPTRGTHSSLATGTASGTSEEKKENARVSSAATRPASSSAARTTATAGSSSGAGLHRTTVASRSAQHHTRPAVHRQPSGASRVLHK

[3] = molecular target: T2, HsERK8 (Homo sapiens, UniProt Q8TD08); conditions: cited from earlier work
T2 construct: plasmid pGEX2T expressing the full-length hERK8 coding region; made in house; host or cells: Escherichia coli Rosetta 2 (DE3)
T2 sequence (Q8TD08 1-544): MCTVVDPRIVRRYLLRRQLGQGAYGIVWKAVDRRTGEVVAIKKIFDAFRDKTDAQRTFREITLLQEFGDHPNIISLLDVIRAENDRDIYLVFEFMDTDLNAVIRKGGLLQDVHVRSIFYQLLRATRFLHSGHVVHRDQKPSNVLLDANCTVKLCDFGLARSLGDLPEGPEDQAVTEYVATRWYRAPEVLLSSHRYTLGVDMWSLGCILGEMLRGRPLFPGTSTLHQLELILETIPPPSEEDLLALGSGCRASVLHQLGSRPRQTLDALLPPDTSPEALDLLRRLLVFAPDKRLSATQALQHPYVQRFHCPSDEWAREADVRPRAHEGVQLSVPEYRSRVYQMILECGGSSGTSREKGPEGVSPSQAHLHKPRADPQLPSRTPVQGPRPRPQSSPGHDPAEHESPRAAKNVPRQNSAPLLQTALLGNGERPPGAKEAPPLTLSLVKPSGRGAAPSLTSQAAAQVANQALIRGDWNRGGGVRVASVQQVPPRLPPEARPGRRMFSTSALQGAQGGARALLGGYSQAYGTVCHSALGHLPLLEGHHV

[4] = molecular target: T1, TbERK8; assay: Luciferase-based kinase inhibition assay (ATP luminescence), GST-tagged TbERK8 with MBP substrate; assay type: biochemical; design: raw luminescence, TbERK8: unit of the concentration uncertain; conditions: for raw luminescence, TbERK8: sheet Kinase_glo_080924_IFPS (2), replicate wells
Protocol: (§1) Escherichia coli strain Rosetta 2 (DE3) (Cat# 71397, MilliporeSigma, Burlington, MA) was transformed with the plasmid pGEX2T expressing the full-length hERK8 coding region or pGSTAg expressing the full-length TbERK8 coding region. One liter of Terrific Broth media containing 100 μg/ml Ampicillin and 30 μg/ml chloramphenicol in 2 L baffled flasks was inoculated with 25 mL from an overnight culture of Rosetta 2 strains harboring either the pGEX2T-hERK8 or pGSTAg-TbERK8 plasmid. Two baffled flasks were inoculated with each overnight strain and incubated and shaken at 175 RPM in a New Brunswick Innova 44R Incubator Shaker (Fischer Scientific, Pittsburgh, PA) at 37 °C until the cultures reached an O.D.600 of 0.94. Once the cultures in the flask reached the target O.D.600, the flasks were cooled to 4 °C in an ice water bath. The cooled cultures were induced by adding isopropyl β-D-1-thiogalactopyranoside (IPTG) to a final concentration of 0.1 mM and shaken at 16 °C for 16 hours at 175 RPM in a New Brunswick Innova 44R Incubator Shaker (Fischer Scientific, Pittsburgh, PA). On the next day, the cultures were pelleted by centrifugation at 9000 xg in a JLA 10.500 rotor (Beckman Coulter; Brea, CA), and the media was decanted. The pellet was flash-frozen in liquid nitrogen and then thawed on ice. The thawed pellet was resuspended in lysis buffer (25 mM Tris, 75 mM NaCl, 0.5% TritonX-100 and 0.5% Nonidet P-40, 1 mM phenylmethanesulfonyl fluoride, 1 mM benzamidine⋅HCl) and lysed using a microfluidizer M-110P from Microfluidics (Westwood, MA). The crude lysates were clarified by centrifugation at 140,000 xg in a 45Ti rotor (Beckman Coulter, Brea, CA) for 30 min at 4°C. The clarified lysate was loaded by gravity to a 3 mL glutathione agarose resin column (Cat# G-250–10, GOLDBIO, St. Louis, MO) formed in a 1.5 × 20 cm glass chromatography column (Cat# 7371522, Bio-Rad, Hercules, CA). The column was washed with 30 mL of PBS (pH 7.4) containing 1 mM DTT. Elution buffer (50 mM Tris buffer pH 8.0 containing 10 mM reduced glutathione and 1 mM DTT was added to the washed column), and 1 mL fractions were collected by gravity and examined by SDS-PAGE stained by Coomassie dye. Peak fractions pooled from the elution were dialyzed (4x 1:500 dilutions) in kinase buffer (30 mM Tris, pH 7.4, 10 mM MgCl2, 1 mM DTT, 5% glycerol).
(§2) We performed kinase assays in buffer K (30 mM Tris pH 7.4, 10 mM MgCl2, 1 mM DTT, 5% glycerol, 50 μM ATP, and 0.1 mg/mL BSA) at 30°C for 30 min in 30 μL reactions. GST-tagged HsERK8 and TbERK8 were tested using myelin basic protein (MBP) (Cat# 13–110, Millipore, Darmstadt, Germany) as the substrate at increasing concentrations to determine the optimal activity for the assay. ATP consumption was determined by adding equal volumes of the kinase assay reagent (Promega, Cat# V5601, Madison, WI) following the manufacturer’s protocol. Luminescence was measured using the microplate reader (SpectraMax L, Molecular Devices, Sunnyvale, CA).
(§3) These compounds were screened for kinase inhibition utilizing a luciferase-based assay. Briefly, the kinases were tested using MBP as the substrate at a 14-fold molar excess in 384-well flat-bottom white plates (BRANDTECH Scientific, Cat# 781681, Essex, CT). These compounds were tested at concentrations ranging from […] to 150 nM. The kinases plus MBP substrate reactions were incubated with each inhibitor for 30 minutes at 30°C. Equal volumes of kinase assay mix Promega (Cat# V5601, Madison, WI) were added to the kinase/inhibitor reaction after 30 minutes, following the manufacturer’s protocol. ATP luminescence was measured using a microplate reader (SpectraMax L, Molecular Devices, Sunnyvale, CA). IC50 values were calculated from assays done in triplicate by fitting the data using Prism 8.1.1 (GraphPad).

[5] = molecular target: T2, HsERK8; assay: Luciferase-based kinase inhibition assay (ATP luminescence), GST-tagged HsERK8 with MBP substrate; assay type: biochemical; conditions: for raw luminescence, HsERK8: sheet Kinase_glo_080924_IFPS (2), replicate wells
Protocol: as §1, §2, §3

[6] = at any tested concentration (10 mM to 150 nM)

Q: What does the source list for `Cc1cc(Nc2nc(N[C@@H](C)c3ccc(F)cc3)c(C#N)cc2F)n[nH]1` [AZ960, (S)-5-Fluoro-2-(1-(4-fluorophenyl)ethylamino)-6-(5-methyl-1H-pyrazol-3-ylamino)nicotinonitrile]?
A: effect on T. brucei parasite [1]: killed the parasite; IC50 ([2]; read-out: IC50 for TbERK8 (published)): 120 nM; inhibition of HsERK8 [3]: inhibiting HsERK8 poorly

Q: For `Cc1ncc(-c2ccnc(Nc3ccc(S(C)(=O)=O)cc3)n2)n1C(C)C` [AZD5438], which “inhibition of TbERK8” value [2] is on record?
A: The value was “potent inhibitor”.

Q: What about the “inhibition of HsERK8” value [3] of the same compound?
A: The value was “potent inhibitor”.

Q: With `C[C@]12CCC(=O)C=C1CC[C@H]1[C@@H]3CC[C@](O)(C(=O)CO)[C@@]3(C)C[C@H](O)[C@@]12F` [Fludrocortisone] as the compound, how does the “raw luminescence, TbERK8” value ([4]; 0.00015 (unit uncertain) compound) read?
A: Its value is 1859.59 RLU and 2054.98 RLU and 1825.9 RLU.

Q: What about the “raw luminescence, TbERK8” value ([4]; 0.00061 (unit uncertain) compound) of the same compound?
A: Its value is 756.861 RLU and 669.272 RLU and 696.222 RLU.

Q: And the “raw luminescence, TbERK8” value ([4]; 0.00244 (unit uncertain) compound)?
A: Its value is 839.958 RLU and 756.861 RLU and 772.582 RLU.

Q: And the “raw luminescence, TbERK8” value ([4]; 0.00977 (unit uncertain) compound)?
A: The value was 471.634 RLU and 512.06 RLU and 359.34 RLU.

Q: And the “raw luminescence, TbERK8” value ([4]; 0.03906 (unit uncertain) compound)?
A: Its value is 947.761 RLU and 727.664 RLU and 806.27 RLU.

Q: What about the “raw luminescence, TbERK8” value ([4]; 0.15625 (unit uncertain) compound) of the same compound?
A: The value was 579.437 RLU and 552.486 RLU and 756.861 RLU.

Q: And the “raw luminescence, TbERK8” value ([4]; 0.62500 (unit uncertain) compound)?
A: The value was 736.648 RLU and 693.976 RLU and 673.763 RLU.

Q: What about the “raw luminescence, TbERK8” value ([4]; 2.50000 (unit uncertain) compound) of the same compound?
A: The value was 1122.94 RLU and 1073.53 RLU and 1107.22 RLU.

Q: And the “raw luminescence, TbERK8” value ([4]; 10.00000 (unit uncertain) compound, signal = ATP left)?
A: Its value is 4505.23 RLU and 4303.1 RLU and 4100.97 RLU.

Q: And the “inhibition of kinase activity of TbERK8” value [4, 6]?
A: Its value is “did not inhibit”.

Q: What about the “raw luminescence, HsERK8” value ([5]; 0.00015 mM compound) of the same compound?
A: Its value is 3640.57 RLU and 3844.94 RLU and 3813.5 RLU.

Q: And the “raw luminescence, HsERK8” value ([5]; 0.00061 mM compound)?
A: Its value is 4118.94 RLU and 4395.18 RLU and 4579.35 RLU.

Q: What about the “raw luminescence, HsERK8” value ([5]; 0.00244 mM compound) of the same compound?
A: Its value is 4696.13 RLU and 4963.39 RLU and 5212.68 RLU.

Q: And the “raw luminescence, HsERK8” value ([5]; 0.00977 mM compound)?
A: The value was 4772.49 RLU and 5547.32 RLU and 5378.88 RLU.

Q: What about the “raw luminescence, HsERK8” value ([5]; 0.03906 mM compound) of the same compound?
A: The value was 6005.48 RLU and 7079.01 RLU and 7018.37 RLU.

Q: What about the “raw luminescence, HsERK8” value ([5]; 0.15625 mM compound) of the same compound?
A: The value was 6266 RLU and 7171.09 RLU and 7216.01 RLU.

Q: And the “raw luminescence, HsERK8” value ([5]; 0.62500 mM compound)?
A: The value was 7168.84 RLU and 8628.66 RLU and 8372.63 RLU.

Q: And the “raw luminescence, HsERK8” value ([5]; 2.50000 mM compound)?
A: The value was 6252.52 RLU and 7644.97 RLU and 7582.08 RLU.

Q: And the “raw luminescence, HsERK8” value ([5]; 10.00000 mM compound, signal = ATP left)?
A: The value was 11251.8 RLU and 11631.4 RLU and 11334.9 RLU.

Q: What about the “inhibition of kinase activity of HsERK8” value [5, 6] of the same compound?
A: Its value is “did not inhibit”.

Q: Which results are given for `Cn1cc(C2=C(c3cn(CCCSC(=N)N)c4ccccc34)C(=O)NC2=O)c2ccccc21` [Ro318220, 3-{3-[4-(1-Methyl-1H-indol-3-yl)-2,5-dioxo-2,5-dihydro-1H-pyrrol-3-yl]-1H-indol-1-yl}propyl carbamimidothioate]?
A: greater potency inhibiting HsERK8 than TbERK8 ([3]; HsERK8 over TbERK8): 100–300 fold; IC50 ([3]; read-out: IC50 for HsERK8 (reported)): 5 to 10 nM
